Results as given in US6838574B1, “Dicarba-closo-dodecarborane derivatives” (Institute of Medicinal Molecular Design, Inc., priority 1999, dated 2005).

Legend:
Assay type in all cases: cell-based
[1] = target: T1, rat estrogen receptor (pCI-rER α) (Rattus norvegicus, UniProt P06211); test: Antiestrogenic activity, luciferase reporter gene assay with coexisting β-estradiol; conditions: for IC50: coexisting β-estradiol 1 × 10^−9M
T1 construct: expressed in transfected cells; host or cells: COS-1 cells
T1 sequence (P06211 1-600): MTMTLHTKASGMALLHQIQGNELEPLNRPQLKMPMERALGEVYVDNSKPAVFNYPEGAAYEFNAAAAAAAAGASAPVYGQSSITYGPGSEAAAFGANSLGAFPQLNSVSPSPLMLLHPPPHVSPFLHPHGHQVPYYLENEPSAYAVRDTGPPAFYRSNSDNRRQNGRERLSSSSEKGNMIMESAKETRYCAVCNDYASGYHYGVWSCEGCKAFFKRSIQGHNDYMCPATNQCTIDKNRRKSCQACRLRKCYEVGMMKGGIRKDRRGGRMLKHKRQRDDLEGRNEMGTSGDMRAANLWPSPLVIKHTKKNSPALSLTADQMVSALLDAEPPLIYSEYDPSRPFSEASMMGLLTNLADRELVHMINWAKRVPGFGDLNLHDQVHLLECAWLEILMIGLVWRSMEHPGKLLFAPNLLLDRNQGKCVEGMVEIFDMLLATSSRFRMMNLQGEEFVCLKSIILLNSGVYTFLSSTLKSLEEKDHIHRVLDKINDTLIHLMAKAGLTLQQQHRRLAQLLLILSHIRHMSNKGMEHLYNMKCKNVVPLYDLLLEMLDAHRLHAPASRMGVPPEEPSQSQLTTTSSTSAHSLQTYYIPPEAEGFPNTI
Procedure: As estrogenic activity, estrogen receptor-dependent transcriptional activation abilities of the test compounds were determined by the r porter gene assay using luciferase gene. COS-1 cells were cultured using a DMEM medium containing an antibiotics and 5% bovine fetal serum in the wells of 24 well plates (cell density: 5 to 6×10^4/well) at 37° C. for one night under 5% carbon dioxide. On the next day, the medium was changed to DMEM medium not containing Phenol Red. Using gene introducing reagent Tfx-20 (Promega), reporter plasmid EREx3-pGL-TK, in which rat estrogen receptor expression plasmid pCI-rER α and an estrogen responsive sequence were placed upstream of the luciferase gene, and β-galactosidase expression plasmid pCMV β used as an internal standard were introduced into cells. The cells were cultured for 2 h, and the medium was changed to DMEM not containing Phenol Red but containing active charcoal-treated serum.
The culture was added with each test compound dissolved in ethanol at various concentrations (final ethanol concentration at 0.5%) and then cultivation was continued at 37° C. for one night under 5% carbon dioxide. On the next day, the cells were lysed and enzymatic activity of luciferase expressed was measured by using a chemiluminometer. The values were standardized based on galactocidase enzymatic activity, and then compared with the values obtained by experiments using no test compound and used as values of activity at various concentrations. […] The estrogenic activities in the table are shown as concentrations for 50% activity (EC50 values) which give 50% activities relative to luciferase activity regarded as 100 that is expressed by treatment with the control compound β-estradiol at 10 nM. Each compound tested in this experiment has a high estrogenic activity.
As antiestrogenic activities, estrogen receptor-dependent transcriptional activation abilities of the test compounds were measured by the reporter gene assay using luciferase gene in the same manner as the estrogen activity measurement. In Table 7, antiestrogenic activities of test compounds are indicated as IC50 values as 50% inhibitory concentrations relative to the luciferase activity regarded as 100 which is expressed by β-estradiol at 1 nM coexisting in the experimental system. Each compound tested in this experiment has antiestrogenic activity.

[2] = test system: human promyelocytic leukemia cell strain HL-60; test: HL-60 differentiation with coexisting differentiation inducer Am80 (anti-differentiation activity); conditions: for percentage of differentiated cells, coexisting compound Am80: coexisting Am80 3.3 × 10^−10M, control 55
[3] = test system: human promyelocytic leukemia cell strain HL-60; test: HL-60 differentiation with coexisting HX630 (enhancer of differentiation inducers); conditions: for percentage of differentiated cells, coexisting compound HX630: coexisting HX630 1 × 10^−7M, control <10; for differentiation inducing activity with HX630 (in words): coexisting HX630 (Table 3)
[4] = test system: human promyelocytic leukemia cell strain HL-60; test: HL-60 differentiation induction, test compound alone; conditions: for percentage of differentiated cells, no coexisting compound: HL-60, 4 days, control <10
Procedure: Inhibitory activity against proliferation of human promyelocytic leukemia cell strain HL-60 was evaluated an index of anti-leukemia activity. Subcultured HL-60 cells were seeded with the initial cell number of 8×10^4 cells/ml in the RPMI 1640 medium containing bovine fetal serum and an antibiotics. Each test compound was added at various concentrations and the mixture was cultured at 37° C. Four days later, cell number was counted. Anti-leukemia activity of each test compound was shown in the tables as percentage values of differentiated cells, which cells were not differentiated in the absence of the test drug, […] observation and NBT reducing ability of the cells as indexes.

[5] = test compound 1 μM, morphology and NBT reducing ability

“1-(2-hydroxyphenyl)-12-(3-dimethylaminoethoxyphenyl)-1,12-dicarba-closo-dodecaborane [BR172]” gave an IC50 [1] of 600 nM.
“1-(3-hydroxyphenyl)-2-(3-dimethylaminoethoxyphenyl)-1,2-dicarba-closo-dodecaborane [BR372]” was tested, and the IC50 [1] was 200 nM.
Compound “1-(3-hydroxyphenyl)-7-(3-dimethylaminoethoxyphenyl)-1,7-dicarba-closo-dodecaborane [BR272]” has an IC50 [1] of 500 nM.
“1-(4-hydroxyphenyl)-2(4-dimethylamino-ethoxyphenyl)-1,2-dicarba-closo-dodecaborane [BR362]” was tested, and the “antiestrogenic activity (in words)” value ([1]; coexisting β-estradiol 1 nM, tamoxifen as control) was “strong activity comparable to that of antiestrogenic drug tamoxifen” and the IC50 [1] was 30 nM.
Work on “1-(4-hydroxyphenyl)-7-(4-dimethylaminoethoxyphenyl)-1,7-dicarba-closo-dodecaborane [BR262]” yielded an IC50 [1] of 200 nM.
For “1-(4-hydroxyphenyl)-12-(4-dimethylaminoethoxyphenyl)-1,12-dicarba-closo-dodecaborane [BR162]”, the IC50 [1] was 10 nM.
In the case of “4-[2-(1,2-dicarba-closo-dododecaboran-1-yl)-(E)-ethenylcarboxamide]benzoic acid [BR110]”, the “percentage of differentiated cells, coexisting compound Am80” value ([2]; HL-60) is reported as 60%, the “percentage of differentiated cells, coexisting compound HX630” value ([3]; HL-60) is reported as 48% and the “differentiation inducing activity with HX630 (in words)” value [3] is reported as “differentiation inducing activities”. The “percentage of differentiated cells, no coexisting compound” value [4, 5] was 12%.
In the case of “4-[3-(2-methyl-1,2-dicarba-closo-dodecaboran-1-yl)phenylcarbamoyl]benzoic acid [BR251]”, the “percentage of differentiated cells, coexisting compound Am80” value ([2]; HL-60) is reported as 55%, the “percentage of differentiated cells, coexisting compound HX630” value ([3]; HL-60) is reported as 77% and the “differentiation inducing activity with HX630 (in words)” value [3] is reported as “differentiation inducing activities”. For the same compound, the “percentage of differentiated cells, no coexisting compound” value [4, 5] was 8%.
For “4-[4-(2-methyl-1,2-dicarba-closo-dodecaboran-1-yl) phenylamino]benzoic acid [BR401]”, the “percentage of differentiated cells, coexisting compound Am80” value ([2]; HL-60) was 60%, the “percentage of differentiated cells, coexisting compound HX630” value ([3]; HL-60) was 75% and the “differentiation inducing activity at low concentration (in words)” value ([4]; 0.01 μM test compound, HL-60) was “activities were maintained”. For the same compound, the “percentage of differentiated cells, no coexisting compound” value ([4]; test compound 0.01 μM) was 26%, the “percentage of differentiated cells, no coexisting compound” value [4, 5] was 70% and the “differentiation inducing activity (in words)” value ([4]; test compound alone, HL-60) was “strong differentiation inducing activities”.
With “4-[4-(2-methyl-1,2-dicarba-closo-dodecaboran-1-yl)-phenylcarbamoyl]benzoic acid [BR201]” the “percentage of differentiated cells, coexisting compound Am80” value ([2]; HL-60) was 5%, the “anti-differentiation activity (in words)” value ([2]; coexisting Am80 (Table 2)) was “strong anti-differentiation activity” and the “percentage of differentiated cells, coexisting compound HX630” value ([3]; HL-60) was 12%. For the same compound, the “percentage of differentiated cells, no coexisting compound” value [4, 5] was 11%.
With “4-[[3-(1,2-Dicarba-closo-dodecaboran-1-yl)phenyl]carboxamide]benzoic acid [BR350]” the “percentage of differentiated cells, coexisting compound Am80” value ([2]; HL-60) was 60%, the “percentage of differentiated cells, coexisting compound HX630” value ([3]; HL-60) was 48% and the “differentiation inducing activity with HX630 (in words)” value [3] was “differentiation inducing activities”. The “percentage of differentiated cells, no coexisting compound” value [4, 5] was 11%.
With “4-{N-methyl-[2-methyl-4-(2-methyl-1,2-dicarba-closo-dodecaboran-1-yl)]phenylamino}benzoic acid [BR431]” the “percentage of differentiated cells, coexisting compound Am80” value ([2]; HL-60) was 55%, the “percentage of differentiated cells, coexisting compound HX630” value ([3]; HL-60) was 12% and the “percentage of differentiated cells, no coexisting compound” value [4, 5] was 10%.
In the case of “4-{[4-(1,2-dicarba-closo-dodecaboran-1-yl)phenyl]carboxamide}benzoic acid [BR300]”, the “percentage of differentiated cells, coexisting compound Am80” value ([2]; HL-60) is reported as 37%, the “percentage of differentiated cells, coexisting compound HX630” value ([3]; HL-60) is reported as 8% and the “percentage of differentiated cells, no coexisting compound” value [4, 5] is reported as 6%.
In the case of `CC1(C)CCC(C)(C)c2cc(NC(=O)c3ccc(C(=O)O)cc3)ccc21` [Am80, 4-[(5,6,7,8-tetrahydro-5,5,8,8-tetramethyl-2-naphthalenyl)carbamoyl]benzoic acid, reference compound], the “percentage of differentiated cells, control (Am80 without test compound)” value ([2]; Am80 3.3 × 10^−10M alone, HL-60) is reported as “Am80 3.3 × 10^−10M (control: 55) %”.
`CC1(C)CCC(C)(C)c2cc3c(cc21)Sc1ccccc1N=C3c1ccc(C(=O)O)cc1` [HX630, 4-[2,3-(2,5-dimethyl-2,5-hexano)dibenzo-[b,f]-[1,4]thiazepin-11-yl]benzoic acid, reference compound] was tested, and the “percentage of differentiated cells, control (HX630 without test compound)” value ([3]; HX630 1 × 10^−7M alone, HL-60) was “HX630 1 × 10^−7M (control: <10) %”.
